The results in this text go back to ChEMBL document CHEMBL1201862, “PubChem BioAssay data set” (2004).

Activity calls are given as the source filed them.

Test [1] addresses T1, Sentrin-specific protease 6 (Homo sapiens, UniProt Q9GZR1).
T1 sequence (Q9GZR1 whole entry): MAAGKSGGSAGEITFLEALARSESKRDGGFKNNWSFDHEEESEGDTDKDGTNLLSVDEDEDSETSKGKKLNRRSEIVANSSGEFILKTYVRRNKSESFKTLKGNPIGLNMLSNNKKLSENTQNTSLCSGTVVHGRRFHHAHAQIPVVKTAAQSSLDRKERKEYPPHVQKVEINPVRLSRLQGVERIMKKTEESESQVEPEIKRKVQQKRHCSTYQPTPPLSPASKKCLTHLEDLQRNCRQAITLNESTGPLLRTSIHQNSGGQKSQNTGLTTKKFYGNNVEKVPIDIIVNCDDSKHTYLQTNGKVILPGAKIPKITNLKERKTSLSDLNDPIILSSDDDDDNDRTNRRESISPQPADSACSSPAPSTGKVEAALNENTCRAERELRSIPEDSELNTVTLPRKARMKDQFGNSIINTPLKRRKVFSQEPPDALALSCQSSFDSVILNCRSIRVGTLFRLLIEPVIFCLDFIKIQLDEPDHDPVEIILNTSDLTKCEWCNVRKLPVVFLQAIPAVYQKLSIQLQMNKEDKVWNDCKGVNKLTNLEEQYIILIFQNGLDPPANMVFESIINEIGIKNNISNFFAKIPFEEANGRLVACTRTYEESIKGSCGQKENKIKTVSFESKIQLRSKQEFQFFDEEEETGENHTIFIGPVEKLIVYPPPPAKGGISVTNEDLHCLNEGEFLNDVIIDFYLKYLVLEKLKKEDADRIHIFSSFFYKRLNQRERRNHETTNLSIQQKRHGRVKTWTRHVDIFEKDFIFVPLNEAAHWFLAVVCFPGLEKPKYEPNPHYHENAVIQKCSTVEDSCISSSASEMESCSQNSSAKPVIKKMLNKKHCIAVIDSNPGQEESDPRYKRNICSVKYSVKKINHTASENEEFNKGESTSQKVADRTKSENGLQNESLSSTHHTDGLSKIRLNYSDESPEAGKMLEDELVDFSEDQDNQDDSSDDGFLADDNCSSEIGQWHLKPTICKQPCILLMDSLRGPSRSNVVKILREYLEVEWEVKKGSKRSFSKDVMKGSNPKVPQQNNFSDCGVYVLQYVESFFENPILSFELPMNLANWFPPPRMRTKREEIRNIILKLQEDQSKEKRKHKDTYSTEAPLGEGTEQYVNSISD
The experiment in a line: SAR Analysis of small molecule inhibitors of Sentrin-specific protease 6 (SENP6) using a Luminescent assay. [Related pubchem assays (depositor defined):AID2582, AID2599]. The class given is functional.

Test [2] has as its target T2, Sentrin-specific protease 8 (Homo sapiens, UniProt Q96LD8).
T2 sequence (Q96LD8 whole entry): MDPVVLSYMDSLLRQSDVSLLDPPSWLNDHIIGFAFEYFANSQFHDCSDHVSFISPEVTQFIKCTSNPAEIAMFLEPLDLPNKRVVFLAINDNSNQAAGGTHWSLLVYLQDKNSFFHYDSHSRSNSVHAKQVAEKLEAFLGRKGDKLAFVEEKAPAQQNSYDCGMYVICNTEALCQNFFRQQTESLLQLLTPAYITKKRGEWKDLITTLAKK
Description: inhibition of human SENP8 cleavage activity – biochemical, luminescence, SAR follow-up (AID 504501). The class given is functional.

In another test the target is T3, ORF 73 (Human herpesvirus 8, UniProt O40947).
T3 sequence (O40947 whole entry): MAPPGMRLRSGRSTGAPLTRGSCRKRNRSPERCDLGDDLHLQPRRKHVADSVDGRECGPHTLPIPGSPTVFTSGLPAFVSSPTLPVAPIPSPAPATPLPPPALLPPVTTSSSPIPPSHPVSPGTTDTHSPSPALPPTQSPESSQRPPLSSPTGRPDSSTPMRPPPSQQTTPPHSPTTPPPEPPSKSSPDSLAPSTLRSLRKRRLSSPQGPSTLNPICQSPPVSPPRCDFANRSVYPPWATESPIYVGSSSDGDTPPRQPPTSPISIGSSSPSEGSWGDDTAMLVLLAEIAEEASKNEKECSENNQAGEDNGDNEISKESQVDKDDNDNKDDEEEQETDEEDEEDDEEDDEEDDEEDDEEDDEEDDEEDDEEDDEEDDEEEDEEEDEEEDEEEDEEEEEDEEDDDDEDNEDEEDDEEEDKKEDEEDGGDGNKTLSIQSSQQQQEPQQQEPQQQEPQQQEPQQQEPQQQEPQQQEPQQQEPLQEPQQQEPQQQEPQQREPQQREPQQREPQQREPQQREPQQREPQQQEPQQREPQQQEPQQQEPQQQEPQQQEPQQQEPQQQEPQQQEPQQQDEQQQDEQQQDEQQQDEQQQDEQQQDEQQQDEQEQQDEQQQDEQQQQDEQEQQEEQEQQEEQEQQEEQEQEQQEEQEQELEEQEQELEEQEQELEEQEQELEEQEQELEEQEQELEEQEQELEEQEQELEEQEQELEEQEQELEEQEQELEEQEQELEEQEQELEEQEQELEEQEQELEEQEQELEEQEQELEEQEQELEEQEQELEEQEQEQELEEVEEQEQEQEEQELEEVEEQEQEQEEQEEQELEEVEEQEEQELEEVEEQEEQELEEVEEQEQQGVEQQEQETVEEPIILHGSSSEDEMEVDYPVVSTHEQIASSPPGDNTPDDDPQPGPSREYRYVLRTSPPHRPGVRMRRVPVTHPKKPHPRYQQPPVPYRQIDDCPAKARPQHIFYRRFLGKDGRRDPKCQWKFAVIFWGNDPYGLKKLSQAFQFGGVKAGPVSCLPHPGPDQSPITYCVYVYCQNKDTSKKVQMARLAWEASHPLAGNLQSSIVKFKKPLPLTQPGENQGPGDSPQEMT
The experiment in a line: KSHV LANA DNA-binding disruption – biochemical, fluorescence polarization, cherry-picked samples, dose response (AID 504725).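 Also: fluorescence polarization of a labeled DNA duplex reporting LANA DNA binding; potency is for inhibitors that block LANA binding to the DNA.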 Further details: species or system Human gammaherpesvirus 8. For orientation: Polarisation of emitted light reports the rotation of a fluorescent probe.

The nature of test [3]: NIH-3T3 fibroblast cytotoxicity, dose response, cytotoxicity control, cell-based, fluorescence, Alamar Blue, secondary assay (AID 2327).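 Also: NIH-3T3 mouse fibroblasts cultured with fluconazole at 8 µg/mL.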 It is filed as functional.
For test [4], the target named is Dual specificity protein phosphatase 3 (Homo sapiens, UniProt P51452). Description: VHR1 phosphatase inhibitors, primary screen, biochemical, absorbance, uHTS (AID 1654).
Test [5] concerns the target ALK tyrosine kinase receptor (Homo sapiens, UniProt Q9UM73). The class given is functional.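 Also: ALK tested as one member of a kinase panel screen.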
For test [6], the target named is Serine/threonine-protein kinase Nek2 (Homo sapiens, UniProt P51955). The class given is functional.
Test [7] deals with Tyrosine-protein kinase JAK3 (Homo sapiens, UniProt P52333). It is filed as functional.
In test [8] the target is Dual specificity protein kinase CLK4 (Homo sapiens, UniProt Q9HAZ1). It is filed as functional.
Test [9] concerns the target Calcium/calmodulin-dependent protein kinase type II subunit alpha (Homo sapiens, UniProt Q9UQM7). Description: Navigating the Kinome. Panel member name: CAMK2A. The class given is functional.
Test [10] addresses Leucine-rich repeat serine/threonine-protein kinase 2 (Homo sapiens, UniProt Q5S007). It is filed as functional.

Chain of Serine/threonine-protein kinase Nek2 (P51955 whole entry): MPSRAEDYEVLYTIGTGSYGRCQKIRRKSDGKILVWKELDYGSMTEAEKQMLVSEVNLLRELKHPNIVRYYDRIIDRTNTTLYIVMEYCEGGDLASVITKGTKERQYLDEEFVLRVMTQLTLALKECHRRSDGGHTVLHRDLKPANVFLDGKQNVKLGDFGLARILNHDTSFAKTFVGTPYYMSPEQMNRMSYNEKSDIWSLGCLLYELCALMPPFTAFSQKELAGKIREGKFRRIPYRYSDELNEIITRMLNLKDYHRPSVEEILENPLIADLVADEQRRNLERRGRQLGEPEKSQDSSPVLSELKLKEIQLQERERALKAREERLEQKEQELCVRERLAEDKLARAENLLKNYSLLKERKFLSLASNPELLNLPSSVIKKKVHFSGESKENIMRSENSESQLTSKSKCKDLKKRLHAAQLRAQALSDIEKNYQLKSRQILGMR
Chain of Dual specificity protein kinase CLK4 (Q9HAZ1 whole entry): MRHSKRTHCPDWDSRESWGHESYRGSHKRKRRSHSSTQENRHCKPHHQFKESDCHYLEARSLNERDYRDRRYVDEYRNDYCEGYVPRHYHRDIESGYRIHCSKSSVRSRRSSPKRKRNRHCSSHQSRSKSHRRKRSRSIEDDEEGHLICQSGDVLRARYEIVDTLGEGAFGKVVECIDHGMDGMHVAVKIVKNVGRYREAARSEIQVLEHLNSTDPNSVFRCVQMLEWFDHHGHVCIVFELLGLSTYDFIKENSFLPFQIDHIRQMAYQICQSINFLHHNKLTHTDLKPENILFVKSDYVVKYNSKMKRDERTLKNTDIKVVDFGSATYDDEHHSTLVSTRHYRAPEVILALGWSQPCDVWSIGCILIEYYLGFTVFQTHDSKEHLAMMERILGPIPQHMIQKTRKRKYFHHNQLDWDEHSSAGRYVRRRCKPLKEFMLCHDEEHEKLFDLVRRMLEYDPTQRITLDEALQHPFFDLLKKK
Chain of ALK tyrosine kinase receptor (Q9UM73 whole entry): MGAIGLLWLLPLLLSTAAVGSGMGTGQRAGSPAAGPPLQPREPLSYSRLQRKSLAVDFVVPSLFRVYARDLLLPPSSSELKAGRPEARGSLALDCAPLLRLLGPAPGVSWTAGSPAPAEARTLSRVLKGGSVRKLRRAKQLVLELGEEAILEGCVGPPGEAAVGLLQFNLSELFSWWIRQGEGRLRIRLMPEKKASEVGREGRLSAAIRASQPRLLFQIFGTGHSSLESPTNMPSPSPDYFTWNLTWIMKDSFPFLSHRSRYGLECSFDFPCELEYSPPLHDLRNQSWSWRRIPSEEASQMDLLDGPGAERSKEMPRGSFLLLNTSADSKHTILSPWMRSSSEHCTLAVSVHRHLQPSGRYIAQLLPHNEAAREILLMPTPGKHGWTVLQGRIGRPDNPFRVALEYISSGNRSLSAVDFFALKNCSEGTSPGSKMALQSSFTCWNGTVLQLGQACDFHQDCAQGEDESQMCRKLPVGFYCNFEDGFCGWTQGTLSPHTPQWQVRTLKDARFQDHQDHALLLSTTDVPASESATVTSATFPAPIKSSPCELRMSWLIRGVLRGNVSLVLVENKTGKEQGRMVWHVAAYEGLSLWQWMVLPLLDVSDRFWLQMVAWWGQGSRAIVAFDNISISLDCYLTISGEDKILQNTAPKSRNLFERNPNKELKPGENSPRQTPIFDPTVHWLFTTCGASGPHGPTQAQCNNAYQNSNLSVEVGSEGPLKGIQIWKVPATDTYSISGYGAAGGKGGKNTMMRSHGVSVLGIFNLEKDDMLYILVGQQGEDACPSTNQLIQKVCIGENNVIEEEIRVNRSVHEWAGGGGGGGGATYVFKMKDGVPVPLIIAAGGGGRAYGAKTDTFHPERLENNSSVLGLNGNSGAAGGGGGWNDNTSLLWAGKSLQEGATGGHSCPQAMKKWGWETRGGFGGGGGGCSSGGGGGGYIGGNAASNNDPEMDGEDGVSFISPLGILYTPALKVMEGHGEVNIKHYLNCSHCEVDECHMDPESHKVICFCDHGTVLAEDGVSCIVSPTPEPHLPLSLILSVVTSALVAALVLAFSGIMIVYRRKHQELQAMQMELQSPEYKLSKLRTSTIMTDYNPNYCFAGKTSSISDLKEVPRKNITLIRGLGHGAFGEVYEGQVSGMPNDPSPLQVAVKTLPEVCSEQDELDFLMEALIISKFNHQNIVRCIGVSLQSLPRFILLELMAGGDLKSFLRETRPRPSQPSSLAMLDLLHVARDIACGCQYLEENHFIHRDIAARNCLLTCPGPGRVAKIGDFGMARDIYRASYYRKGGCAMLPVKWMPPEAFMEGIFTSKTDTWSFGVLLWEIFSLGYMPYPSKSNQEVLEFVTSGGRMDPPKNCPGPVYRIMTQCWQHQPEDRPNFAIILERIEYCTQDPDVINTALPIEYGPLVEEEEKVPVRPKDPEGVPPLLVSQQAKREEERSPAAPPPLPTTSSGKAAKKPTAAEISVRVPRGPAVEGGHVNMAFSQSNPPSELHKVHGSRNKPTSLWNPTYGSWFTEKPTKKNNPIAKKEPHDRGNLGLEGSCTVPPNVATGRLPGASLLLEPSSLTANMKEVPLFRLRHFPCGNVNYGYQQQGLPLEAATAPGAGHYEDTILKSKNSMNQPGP
Chain of Dual specificity protein phosphatase 3 (P51452 whole entry): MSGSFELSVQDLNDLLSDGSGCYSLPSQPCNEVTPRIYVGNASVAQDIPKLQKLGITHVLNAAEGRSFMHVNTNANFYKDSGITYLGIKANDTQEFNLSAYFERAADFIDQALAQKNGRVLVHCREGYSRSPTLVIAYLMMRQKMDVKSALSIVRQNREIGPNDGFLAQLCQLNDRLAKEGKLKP
Chain of Tyrosine-protein kinase JAK3 (P52333 whole entry): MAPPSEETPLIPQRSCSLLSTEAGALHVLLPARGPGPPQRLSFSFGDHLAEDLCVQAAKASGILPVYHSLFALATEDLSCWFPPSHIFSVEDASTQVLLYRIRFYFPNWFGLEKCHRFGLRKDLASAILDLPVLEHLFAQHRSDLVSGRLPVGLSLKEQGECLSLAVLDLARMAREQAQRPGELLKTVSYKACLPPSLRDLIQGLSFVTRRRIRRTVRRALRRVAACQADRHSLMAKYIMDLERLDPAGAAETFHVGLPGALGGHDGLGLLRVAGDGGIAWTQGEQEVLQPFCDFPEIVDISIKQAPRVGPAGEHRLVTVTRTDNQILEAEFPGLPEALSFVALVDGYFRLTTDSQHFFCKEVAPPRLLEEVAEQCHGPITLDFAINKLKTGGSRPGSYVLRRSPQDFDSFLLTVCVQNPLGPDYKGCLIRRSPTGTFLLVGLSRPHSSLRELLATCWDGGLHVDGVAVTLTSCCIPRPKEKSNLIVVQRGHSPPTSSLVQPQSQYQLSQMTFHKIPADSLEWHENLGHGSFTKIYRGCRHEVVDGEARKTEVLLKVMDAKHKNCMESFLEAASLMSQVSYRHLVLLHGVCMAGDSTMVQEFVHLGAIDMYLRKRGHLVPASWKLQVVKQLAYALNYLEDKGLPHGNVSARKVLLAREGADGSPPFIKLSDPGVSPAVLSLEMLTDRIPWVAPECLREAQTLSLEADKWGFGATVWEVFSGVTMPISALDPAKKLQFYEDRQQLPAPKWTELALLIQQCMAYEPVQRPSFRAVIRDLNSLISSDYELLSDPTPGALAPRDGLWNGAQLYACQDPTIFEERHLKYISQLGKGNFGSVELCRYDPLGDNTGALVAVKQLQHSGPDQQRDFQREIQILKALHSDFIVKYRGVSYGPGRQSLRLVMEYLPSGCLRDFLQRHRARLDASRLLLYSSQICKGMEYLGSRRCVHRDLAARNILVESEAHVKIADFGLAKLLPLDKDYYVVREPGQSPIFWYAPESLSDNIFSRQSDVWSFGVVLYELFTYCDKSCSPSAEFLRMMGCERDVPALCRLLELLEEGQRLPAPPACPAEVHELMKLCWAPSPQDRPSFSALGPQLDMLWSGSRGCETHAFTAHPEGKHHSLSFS
Chain of Calcium/calmodulin-dependent protein kinase type II subunit alpha (Q9UQM7 whole entry): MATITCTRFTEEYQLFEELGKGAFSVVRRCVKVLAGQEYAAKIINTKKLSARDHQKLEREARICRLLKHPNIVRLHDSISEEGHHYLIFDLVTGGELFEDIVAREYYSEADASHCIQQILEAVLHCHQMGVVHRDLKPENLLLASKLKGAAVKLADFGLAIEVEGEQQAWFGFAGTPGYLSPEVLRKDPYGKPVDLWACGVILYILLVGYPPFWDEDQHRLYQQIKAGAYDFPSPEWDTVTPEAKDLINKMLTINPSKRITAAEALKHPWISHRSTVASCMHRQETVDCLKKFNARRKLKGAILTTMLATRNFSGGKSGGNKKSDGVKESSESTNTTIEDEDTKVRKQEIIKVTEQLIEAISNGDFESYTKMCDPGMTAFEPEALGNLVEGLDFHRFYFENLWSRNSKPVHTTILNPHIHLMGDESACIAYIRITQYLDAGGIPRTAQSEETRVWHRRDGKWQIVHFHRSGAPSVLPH

On to `O=C(NNc1cc(N2CCCC2)nc(N2CCCC2)n1)c1ccc([N+](=O)[O-])cc1`, for which the IC50 in [1] was 1.43 µM (active); in test [2], 3.37 µM (active).

Turning to `O=S(=O)(O)c1cccc2c(N=Nc3ccc(O)c4ncccc34)cccc12`, on ORF 73, the AC50 was 64.1 µM (active). Also, the EC50 in test [3] is > 160 µM (inactive). For the same compound, in [4], the IC50 is 2.28 µM (active).

Turning to `O=C(Cc1cccs1)Nc1nc2ccccc2s1`, the Ki in [5] was 2.51 µM (active); in test [6], 1 µM (active); in test [7] it was > 5.01 µM (inactive); in test [8], 501 nM (active); in [9] it was 3.16 µM (active); in test [10], 794 nM (active).

Usually IC50 stands for the concentration needed to halve the response being measured. The AC50 is the concentration at which the activity in the assay is half-maximal. What is called EC50 is the concentration at which the effect is half-maximal. By Ki is commonly meant a measure of affinity in units of concentration, obtained from inhibition or displacement.
